{
  "source": "patent US11970480",
  "key": {"[1]": {"settings": "amide bond, 2 steps"}, "[2]": {"settings": "21-membered ring"}, "[3]": {"settings": "from 5,5′-(propane-1,3-diylbis(oxy))bis(4-chloro-3-nitrobenzamide) + butane-1,4-diamine; snar bond; 15-membered ring; DIEA; DMSO; 714.0 mM; 120.0 °C; 2 steps"}},
  "note": "Like-named read-outs stand apart in the source and are kept apart here.",
  "data": [
    {"compound": "8-ethyl-10,18,30-trimethyl-7,20-dioxo-7,8,11,12,13,14,15,20,21,28,29,30,31,32-tetradecahydro-benzo[4,5]imidazo[2,1-b]benzo[4,5]imidazo[1,2-l]dipyrazolo[5,1-m:4′,3′-t][1,3,6,9,11,14]hexaazacyclodocosine-3,24-dicarboxamide", "values": [
      {"measurement": "ring closure, yield after HPLC", "setting": "[1]; 22-membered ring, HATU/DIEA, NMP, 68.9 mM, 140.0 °C", "value": 4.56, "unit": "%"}
    ]},
    {"compound": "(E)-1,26-Dibromo-8-ethyl-10,18-dimethyl-7,20-dioxo-6,7,8,11,12,13,14,15,20,21,28,31-dodecahydrobenzo[4,5]imidazo[1,2-a]benzo[4,5]imidazo[2,1-p]dipyrazolo[5,1-e:4′,3′-1][1,3,6,15,17]pentaazacyclohenicosine-3,24-dicarboxamide", "values": [
      {"measurement": "ring closure, isolated yield", "setting": "[2]; amide bond, HATU/DIEA, DMF, 59.3 mM, 90.0 °C, 2 steps", "value": 24, "unit": "%"}
    ]},
    {"compound": "8-Ethyl-10,18-dimethyl-7,20-dioxo-6,7,8,11,14,15,20,21,28,29,30,31-dodecahydrobenzo[4,5]imidazo[1,2-a]benzo[4,5]imidazo[2,1-p]dipyrazolo[5,1-e:4′,3′-1][1,3,6,15,17]pentaazacyclohenicosine-3,24-dicarboxamide", "values": [
      {"measurement": "ring closure, yield after HPLC", "setting": "[1]; 21-membered ring, HATU/DIEA, NMP, 92.4 mM, 80.0 °C", "value": 1.7, "unit": "%"}
    ]},
    {"compound": "(1r,39r)-14-ethyl-16,25-dimethyl-12,28-dioxo-2,9,11,14,15,23,24,29,31,38-decaazaoctacyclo[37.2.2.0^2,^1^0.0^3,^8.0^13,^1^7.0^23,^2^7.0^3^0,^3^8.0^32,^3^7]tritetraconta-3,5,7,9,13(17),15,24,26,30,32,34,36-dodecaene-6,34-Dicarboxamide", "values": [
      {"measurement": "ring closure, isolated yield", "setting": "[2]; amide bond, HATU/DIEA, DMF, 116.0 mM, 80.0 °C, 2 steps", "value": 0.3, "unit": "%"}
    ]},
    {"compound": "8-Ethyl-10,17-dimethyl-7,19-dioxo-7,8,11,12,13,14,19,20,27,28,29,30-dodecahydro-6H-benzo[4,5]imidazo[1,2-a]benzo[4,5]imidazo[2,1-o]dipyrazolo[5,1-e:4′,3′-k][1,3,6,14,16]pentaazacycloicosine-3,23-dicarboxamide", "values": [
      {"measurement": "ring closure, yield after HPLC", "setting": "[1]; 20-membered ring, HATU/DIEA, NMP, 61.5 mM, 120.0 °C", "value": 2, "unit": "%"}
    ]},
    {"compound": "CCn1nc(C)c2c1C(=O)Nc1nc3cc(C(N)=O)ccc3n1CC=CCn1c(nc3cc(C(N)=O)ccc31)NC(=O)c1cc(C)nn1CCCCC2", "values": [
      {"measurement": "ring closure, yield of all isomers", "setting": "from C=CCn1c(NC(=O)c2cc(C)nn2CCCCCc2c(C)nn(CC)c2C(=O)Nc2nc3cc(C(N)=O)ccc3n2CC=C)nc2cc(C(N)=O)ccc21, rcm bond, Hoveyda-Grubbs II, 1,2-dichloroethane, 2.69 mM, 100.0 °C, 4.0 h", "value": 35, "unit": "%"},
      {"measurement": "ring closure, isolated yield", "setting": "[2]; from C=CCn1c(NC(=O)c2cc(C)nn2CCCCCc2c(C)nn(CC)c2C(=O)Nc2nc3cc(C(N)=O)ccc3n2CC=C)nc2cc(C(N)=O)ccc21, rcm bond, Hoveyda-Grubbs II (20 mol%), DCE, 2.69 mM, 100.0 °C", "value": 35, "unit": "%"}
    ]},
    {"compound": "8-Ethyl-10,13,13,18-tetramethyl-7,20-dioxo-6,7,8,11,12,13,14,15,20,21,28,29,30,31-tetradecahydrobenzo[4,5]imidazo[1,2-a]benzo[4,5]imidazo[2,1-p]dipyrazolo[5,1-e:4′,3′-1][1,3,6,15,17]pentaazacyclohenicosine-3,24-dicarboxamide", "values": [
      {"measurement": "ring closure, yield after HPLC", "setting": "[1]; 21-membered ring, HATU, NMP, 51.0 mM, 40.0 °C", "value": 3.4, "unit": "%"}
    ]},
    {"compound": "(E)-8-Ethyl-1,26-dimethoxy-10,18-dimethyl-7,20-dioxo-6,7,8,11,12,13,14,15,20,21,28,31-dodecahydrobenzo[4,5]imidazo[1,2-a]benzo[4,5]imidazo[2,1-p]dipyrazolo[5,1-e:4′,3′-1][1,3,6,15,17]pentaazacyclohenicosine-3,24-dicarboxamide, bis trifluoroacetic acid salt", "values": [
      {"measurement": "ring closure, yield after HPLC", "setting": "[1]; 21-membered ring, HATU/TEA, DMF, 24.4 mM, 100.0 °C", "value": 1, "unit": "%"}
    ]},
    {"compound": "CCn1nc(C)c2c1C(=O)Nc1nc3cc(C(N)=O)ccc3n1CCCCn1c(nc3c(CNC(=O)OC(C)(C)C)cccc31)NC(=O)c1cc(C)nn1CCCCC2", "values": [
      {"measurement": "ring closure, yield of all isomers", "setting": "from CCn1nc(C)c(CCCCCn2nc(C)cc2C(=O)Nc2nc3c(CNC(=O)OC(C)(C)C)cccc3n2CCCCn2c(N)nc3cc(C(N)=O)ccc32)c1C(=O)O, amide bond, EDC/HOBt, DIEA, cat. DMAP, DMF, 18.2 mM, 60.0 °C, 6.0 h", "value": 56, "unit": "%"},
      {"measurement": "ring closure, isolated yield", "setting": "[2]; from CCn1nc(C)c(CCCCCn2nc(C)cc2C(=O)Nc2nc3c(CNC(=O)OC(C)(C)C)cccc3n2CCCCn2c(N)nc3cc(C(N)=O)ccc32)c1C(=O)O, amide bond, EDC/HOBt/DIEA/DMAP, DMF, 18.2 mM, 60.0 °C", "value": 56, "unit": "%"}
    ]},
    {"compound": "CCn1nc(C)c2c1C(=O)Nc1nc3cc(C(N)=O)ccc3n1CCCCn1c(nc3c(N(C)Cc4ccc(OC)cc4)cccc31)NC(=O)c1cc(C)nn1CCCCC2", "values": [
      {"measurement": "ring closure, yield of all isomers", "setting": "from CCn1nc(C)c(CCCCCn2nc(C)cc2C(=O)Nc2nc3c(N(C)Cc4ccc(OC)cc4)cccc3n2CCCCn2c(N)nc3cc(C(N)=O)ccc32)c1C(=O)O, amide bond, EDC/HOBt/DMAP, DMF, 23.7 mM, 60.0 °C, 32.0 h", "value": 20.4, "unit": "%"},
      {"measurement": "ring closure, isolated yield", "setting": "[2]; from CCn1nc(C)c(CCCCCn2nc(C)cc2C(=O)Nc2nc3c(N(C)Cc4ccc(OC)cc4)cccc3n2CCCCn2c(N)nc3cc(C(N)=O)ccc32)c1C(=O)O, amide bond, EDC/HOBt/DMAP, DMF, 23.7 mM, 60.0 °C", "value": 20.4, "unit": "%"}
    ]},
    {"compound": "2-amino-1-(3-(3-(2-(2-amino-5-carbamoyl-1H-benzo[d]imidazol-1-yl)ethyl)phenyl)-propyl)-1H-benzo[d]imidazole-5-carboxamide + 4-(5-(5-carboxy-3-methyl-1H-pyrazol-1-yl)pentyl)-1-ethyl-3-methyl-1H-pyrazole-5-carboxylic acid", "values": [
      {"measurement": "ring closure, yield after HPLC", "setting": "[1]; the molecule shown is the open-chain precursor, 25-membered ring, HATU, NMP, 40.3 mM, 40.0 °C", "value": 0.6, "unit": "%"}
    ]},
    {"compound": "NC(=O)c1cc2c(c([N+](=O)[O-])c1)NCCCCNc1c(cc(C(N)=O)cc1[N+](=O)[O-])OCCCO2", "values": [
      {"measurement": "ring closure, crude yield", "setting": "[3]", "value": 90, "unit": "%"}
    ]}
  ]
}
